Test results published in patent publication US12097213B2, “Sequential treatment of cancers using 6-thio-dG, checkpoint inhibitors and radiation therapy” (The Board of Regents of the University of Texas System, priority 2020, dated 2024).

Key:
tumor-specific T cells = assay: IFN-γ ELISPOT of splenocytes / draining lymph node cells; type: in vivo, mouse; details: splenocytes re-stimulated with irradiated MC38 tumor cells 48 hrs; 3 mg/kg, days 7, 8, 9
Procedure: IFN-γ enzyme-linked immunosorbent spot assay (ELISPOT). MC38 tumors were injected subcutaneously on the right flank of C57BL/6. For 6-thio-dG single treatment, 3 mg/kg 6-thio-dG was intraperitoneally given on days 7, 8 and 9; for PD-L1 blockade combination therapy in MC38 model, 3 mg/kg 6-thio-dG was given on day 10 and day 11, 50 μg PD-L1 was intraperitoneally injected on day 11. 7 days after last treatment, tumor draining lymphoid and spleen from tumor-bearing mice were collected and single-cell suspension was prepared. Irradiated MC38 tumor cells and control LLC tumor cells were used to re-stimulate the tumor-specific T cells. 1.5×10^5 draining lymph nodes cells or splenocytes and 7.5×10^4 irradiated tumor cells were co-cultured for 48 hrs, and ELISPOT assay was performed using the IFN-γ ELISPOT kit (BD Bioscience) according to the manufacturer's instructions. IFN-γ spots were enumerated with the CTL-ImmunoSpot® S6 Analyzer (Cellular Technology Limited).

tumor cells = assay: Autophagy in tumor cells (data not shown); type: cell-based; details: after 6-thio-dG treatment
[1] = test system: bone marrow derived DCs (BMDCs); assay: In vitro co-culture of BMDC with 6-thio-dG pretreated tumor cells and T cells; type: cell-based, mouse
Procedure: In vitro co-culture of bone marrow dendritic cells (BMDC) and T cells. Single-cell suspensions of bone marrow (BM) cells were collected from tibias and femurs of C57BL/6 mice. The BM cells were placed in 10 cm dish and cultured with complete RPMI 1640 medium containing 20 ng/mL recombinant mouse GM-CSF (BioLegend). Fresh medium with was added into the culture on day 3 and day 6. The BMDCs were harvested Day 7. CD8+ T cells were isolated from lymph nodes and spleens of OT-1 transgenic mice with a negative CD8+ T cell isolation kit (Stemcell). MC38-OVA cells pretreated with 200 nM 6-thio-dG for 4 hrs. Then the drug was washed out, tumor cells were continued to culture for 72 hrs and were harvested on the same day as BMDC harvest. Then MC38-OVA cells were co-cultured with BMDC for overnight. Supernatant was collected for IFN-β ELISA test (PBL). BMDCs were sorted with CD11c+ positive selection kit (Stemcell) and co-cultured with OT-1 CD8+ T cells for 48 hrs. Supernatants were collected and IFN-γ was measured by cytometric bead array assay (BD Biosciences).
Quantitative real-time PCR. Real-time PCR was performed with SsoAdvanced™ Universal SYBR® Green Supermix (Bio-Rad) according to the manufacturer's instructions with different primer sets (human MT-CO1, forward primer 5′-[…]-3′ (SEQ ID NO: 3), reverse primer 5′-CGGGGCATTCCG GATAGGCC-3′ (SEQ ID NO: 4); human18s rRNA, forward primer 5′-[…]-3′ (SEQ ID NO: 5), reverse primer 5′-[…]-3′ (SEQ ID NO: 6); mouse IFN-β, forward primer 5′-ATGAGTGGTGGTTGCAGGC-3′ (SEQ ID NO: 7), reverse primer 5′-[…]-3′ (SEQ ID NO: 8); mouse GAPDH, forward primer 5′-CATCAAGAA GGTGGTGAAGC-3′ (SEQ ID NO: 9), reverse primer 5′-[…]-3′) (SEQ ID NO: 10) mouse GAPDH was used as the internal control. 2^−ΔΔCt method was used to calculate relative expression changes.

[2] = test system: mouse BMDC co-cultured with HCT116; assay: Cytosolic DNA extraction and qPCR in DCs co-cultured with HCT116; type: cell-based; details: HCT116 pretreated with 500 nM 6-thio-dG; co-culture 4 hrs
Procedure: Cytosolic DNA extraction and quantitative real-time PCR. HCT 116 cells were pretreated with 500 nM 6-thio-dG for 4 hrs. Then drug was washed out, tumor cells were continued to culture for 72 hrs and harvest on the same day as BMDC harvest. Then HCT116 cells were mixed 1:1 with 1×10^6 BMDC for 4 hrs. BMDC was purified and divided into two equal aliquots.
One aliquot was extracted for total genomic DNA with Purelink Genomic DNA kit (Invitrogen) and served as normalization control. The other aliquot was resuspended in 100 μL cytosolic extract buffer containing 150 mM NaCl, 50 mM HEPES and […] digitonin (Sigma) and incubated for 10 mins at RT for plasma membrane permeabilization (West et al., 2015). Then cells were centrifuged to pellet intact cells. The cytosolic supernatants were collected and centrifuged at 12000 g for 10 mins to pellet the remaining cellular debris. Then cytosolic DNA was extracted with Purelink Genomic DNA kit (Invitrogen). Quantitative PCR was performed on both whole-cell extracts and cytosolic fractions using human DNA primers and mouse DNA primers (Xu et al., 2017).
Quantitative real-time PCR. […]

MC38 tumor cells = assay: MC38 tumor growth and treatment in mice; type: in vivo, mouse
Procedure: Tumor growth and treatment. A total of 5×10^5 MC38, 5×10^5 CT26 or 1×10^6 LLC cells were inoculated subcutaneously into right dorsal flanks of the mice in 100 μL phosphate buffered saline (PBS). Tumor-bearing mice were randomly grouped into treatment groups when tumors grew to around 100 mm^3. For 6-thio-dG single treatment, 3 mg/kg 6-thio-dG was intraperitoneally given on days 7, 8 and 9 in MC38 tumor and LLC tumor and on days 5, 6, 7 for CT26 tumor. For CSF1R, NKL.1, CD4+ and CD8+ T cell depletion, 200 μg of antibodies were intraperitoneally injected 1 day before treatment initiation and then twice a week for 2 weeks. For PD-L1 blockade combination therapy in MC38 model, 6-thio-dG was given on day 10 and day 11, 50 μg PD-L1 was intraperitoneally injected on day 13 and 17. For PD-L1 blockade combination therapy in LLC model, 6-thio-dG was given on day 4, 5, 6, 10 and 11, 200 μg PD-L1 was intraperitoneally injected on day 8 and 13. Tumor volumes were measured by the length (a), width (b) and height (h) and calculated as tumor volume=abh/2.

`Nc1nc2c(ncn2[C@H]2C[C@H](O)[C@@H](CO)O2)c(=S)[nH]1` [6-thio-dG, 6-thio-2′-deoxyguanosine] was tested, and the “tumor-specific cytotoxic T cell responses (IFN-γ producing T cells)” value (tumor-specific T cells) was “enhanced”, the “activation of autophagy in tumor cells” value (tumor cells) was “did not see activation of autophagy” and the “IFN-γ production by OT-1 CD8+ T cells (cross-priming capacity of DCs)” value ([1]; MC38-OVA pretreated with 200 nM 6-thio-dG, DC/T cell co-culture 48 hrs, CBA) was “significant increase”. For the same compound, the “IFN-β in DCs, WT vs Tmem173KO” value ([1]; MC38 pretreated with 200 nM 6-thio-dG, qPCR) was “induced IFN-β production in DCs in a STING-dependent manner”, the “IFN-β production by DCs” value ([1]; co-culture with tumor cells pretreated with 200 nM 6-thio-dG, ELISA) was “significantly increased” and the “human DNAs (MT-CO1 and human 18S) in the cytosol of mouse DCs” value [2] was “increase”. For the same compound, the “therapeutic effect on tumor growth with CD4+ T cell depletion” value (MC38 tumor cells; 200 μg anti-CD4, 3 mg/kg, days 7, 8, 9) was “marginal influence”, the “therapeutic effect on tumor growth with CD8+ T cell depletion” value (MC38 tumor cells; 200 μg anti-CD8, 3 mg/kg, days 7, 8, 9) was “completely abolished” and the “tumor growth with macrophage depletion” value (MC38 tumor cells; 200 μg anti-CSF1R, 3 mg/kg, days 7, 8, 9) was “worked even better”. For the same compound, the “therapeutic effect with NK cell depletion” value (MC38 tumor cells; 200 μg anti-NK1.1, 3 mg/kg, days 7, 8, 9) was “did not see an impact”, the tumor growth (MC38 tumor cells; Batf3 deficient mice, 3 mg/kg, days 7, 8, 9) was “partially delayed tumor growth but was significantly less effective compared with WT mice” and the mice tumor free (MC38 tumor cells; Batf3−/− mice) was “none”. For the same compound, the anti-tumor effect (MC38 tumor cells; Ifnar1−/− mice, 3 mg/kg, days 7, 8, 9) was “abolished”, the tumor growth (MC38 tumor cells; Mb21d1KO MC38 tumor cells in C57BL/6 mice, 3 mg/kg, days 7, 8, 9) was “still controlled tumor growth” and the tumor growth (MC38 tumor cells; Myd88−/− mice, 3 mg/kg, days 7, 8, 9) was “controlled tumor growth well”. The “therapeutic effect on tumor growth” value (MC38 tumor cells; Rag1 knock out mice, 3 mg/kg, days 7, 8, 9) was “completely diminished”, the tumor growth (MC38 tumor cells; Tmem173KO MC38 tumor cells in C57BL/6 mice, 3 mg/kg, days 7, 8, 9) was “still controlled tumor growth” and the “tumor growth (efficacy)” value (MC38 tumor cells; Tmem173−/− mice, 3 mg/kg, days 7, 8, 9) was “completely lost efficacy”. The tumor growth (MC38 tumor cells; WT C57BL/6 mice, 3 mg/kg daily for three days (days 7, 8, 9), i.p., vs control tumor) was “significantly reduced”, the “mice completely tumor free” value (MC38 tumor cells; WT mice) was 60% and the “re-challenge with MC38 tumor (memory response)” value (MC38 tumor cells; cured mice rested 5 weeks, 10 times more tumor cells, opposite flank) was “spontaneously rejected re-challenged MC38 tumors”. For the same compound, the “tumor volume / tumor growth in advanced tumors” value (MC38 tumor cells; tumor sizes 150-200 mm^3, 6-thio-dG 3 mg/kg days 10, 11, 50 μg anti-PD-L1 days 13 and 17) was “difficult to control”.
